According to ChEMBL document CHEMBL1201862, “PubChem BioAssay data set” (2004):
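All cell lines were grown in 96-well plates and treated with compound for 48 hours. GI50: concentration for 50% inhibition of growth.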 Active and inactive are the calls of the source. Rule as the data show it: active = GI50 up to about 1.1 µM and inactive = higher.

Experiments:
Assay in all cases: inhibition of tumour cell growth, NCI panel, 48 h
786-0 = system: 786-0
A549 = system: A549
ACHN = system: ACHN
BT-549 = system: BT-549
CAKI-1 = system: CAKI-1
CCRF-CEM = system: CCRF-CEM
COLO 205 = system: COLO 205
DU-145 = system: DU-145
EKVX = system: EKVX
HCT-116 = system: HCT-116
HCT-15 = system: HCT-15
HL-60 = system: HL-60
HOP-62 = system: HOP-62
HOP-92 = system: HOP-92
HT-29 = system: HT-29
Hs-578T = system: Hs-578T
IGROV-1 = system: IGROV-1
K562 = system: K562
KM12 = system: KM12
LOX IMVI = system: LOX IMVI
M14 = system: M14
MCF7 = system: MCF7
MDA-MB-231 = system: MDA-MB-231
MDA-MB-435 = system: MDA-MB-435
MDA-N = system: MDA-N
MOLT-4 = system: MOLT-4
NCI-H226 = system: NCI-H226
NCI-H23 = system: NCI-H23
NCI-H460 = system: NCI-H460
NCI-H522 = system: NCI-H522
NCI/ADR-RES = system: NCI/ADR-RES
OVCAR-3 = system: OVCAR-3
OVCAR-4 = system: OVCAR-4
OVCAR-5 = system: OVCAR-5
OVCAR-8 = system: OVCAR-8
PC-3 = system: PC-3
RPMI-8226 = system: RPMI-8226
RXF 393 = system: RXF 393
SF-268 = system: SF-268
SF-295 = system: SF-295
SF-539 = system: SF-539
SK-MEL-28 = system: SK-MEL-28
SK-MEL-2 = system: SK-MEL-2
SK-MEL-5 = system: SK-MEL-5
SK-OV-3 = system: SK-OV-3
SN12C = system: SN12C
SNB-19 = system: SNB-19
SNB-75 = system: SNB-75
SR = system: SR
SW-620 = system: SW-620
T47D = system: T47D
TK-10 = system: TK-10
U-251 = system: U-251
UACC-257 = system: UACC-257
UACC-62 = system: UACC-62
UO-31 = system: UO-31
A498 = system: A498
HCC 2998 = system: HCC 2998
Malme-3M = system: Malme-3M

Question: With `C(=C\Nc1ccc(-c2ccccc2)cc1)/C=N/c1ccc(-c2ccccc2)cc1` as the compound, how does the GI50 (786-0) read?
Answer: > 100 µM (inactive)

Question: And the GI50 (A549)?
Answer: > 100 µM (inactive)

Question: And the GI50 (ACHN)?
Answer: > 100 µM (inactive)

Question: What about the GI50 (BT-549) of the same compound?
Answer: > 100 µM (inactive)

Question: What about the GI50 (CAKI-1) of the same compound?
Answer: > 100 µM (inactive)

Question: And the GI50 (CCRF-CEM)?
Answer: > 100 µM (inactive)

Question: And the GI50 (COLO 205)?
Answer: > 100 µM (inactive)

Question: And the GI50 (DU-145)?
Answer: > 100 µM (inactive)

Question: And the GI50 (EKVX)?
Answer: > 100 µM (inactive)

Question: What about the GI50 (HCT-116) of the same compound?
Answer: > 100 µM (inactive)

Question: And the GI50 (HCT-15)?
Answer: > 100 µM

Question: What about the GI50 (HL-60) of the same compound?
Answer: > 100 µM (inactive)

Question: And the GI50 (HOP-62)?
Answer: > 100 µM (inactive)

Question: What about the GI50 (HOP-92) of the same compound?
Answer: > 100 µM (inactive)

Question: What about the GI50 (HT-29) of the same compound?
Answer: > 100 µM (inactive)

Question: What about the GI50 (Hs-578T) of the same compound?
Answer: > 100 µM (inactive)

Question: What about the GI50 (IGROV-1) of the same compound?
Answer: > 100 µM (inactive)

Question: And the GI50 (K562)?
Answer: > 100 µM (inactive)

Question: And the GI50 (KM12)?
Answer: > 100 µM (inactive)

Question: And the GI50 (LOX IMVI)?
Answer: > 100 µM (inactive)

Question: And the GI50 (M14)?
Answer: > 100 µM (inactive)

Question: And the GI50 (MCF7)?
Answer: > 100 µM (inactive)

Question: What about the GI50 (MDA-MB-231) of the same compound?
Answer: 79.8 µM (inactive)

Question: What about the GI50 (MDA-MB-435) of the same compound?
Answer: > 100 µM (inactive)

Question: What about the GI50 (MDA-N) of the same compound?
Answer: > 100 µM (inactive)

Question: What about the GI50 (MOLT-4) of the same compound?
Answer: > 100 µM (inactive)

Question: What about the GI50 (NCI-H226) of the same compound?
Answer: > 100 µM (inactive)

Question: What about the GI50 (NCI-H23) of the same compound?
Answer: > 100 µM (inactive)

Question: What about the GI50 (NCI-H460) of the same compound?
Answer: > 100 µM (inactive)

Question: And the GI50 (NCI-H522)?
Answer: > 100 µM (inactive)

Question: What about the GI50 (NCI/ADR-RES) of the same compound?
Answer: > 100 µM (inactive)

Question: What about the GI50 (OVCAR-3) of the same compound?
Answer: > 100 µM (inactive)

Question: And the GI50 (OVCAR-4)?
Answer: > 100 µM (inactive)

Question: And the GI50 (OVCAR-5)?
Answer: > 100 µM (inactive)

Question: What about the GI50 (OVCAR-8) of the same compound?
Answer: > 100 µM (inactive)

Question: And the GI50 (PC-3)?
Answer: > 100 µM (inactive)

Question: What about the GI50 (RPMI-8226) of the same compound?
Answer: > 100 µM (inactive)

Question: What about the GI50 (RXF 393) of the same compound?
Answer: > 100 µM (inactive)

Question: And the GI50 (SF-268)?
Answer: > 100 µM (inactive)

Question: And the GI50 (SF-295)?
Answer: > 100 µM (inactive)

Question: And the GI50 (SF-539)?
Answer: > 100 µM (inactive)

Question: What about the GI50 (SK-MEL-28) of the same compound?
Answer: > 100 µM (inactive)

Question: What about the GI50 (SK-MEL-2) of the same compound?
Answer: > 100 µM (inactive)

Question: What about the GI50 (SK-MEL-5) of the same compound?
Answer: > 100 µM (inactive)

Question: What about the GI50 (SK-OV-3) of the same compound?
Answer: > 100 µM (inactive)

Question: And the GI50 (SN12C)?
Answer: > 100 µM (inactive)

Question: And the GI50 (SNB-19)?
Answer: > 100 µM (inactive)

Question: And the GI50 (SNB-75)?
Answer: > 100 µM (inactive)

Question: And the GI50 (SR)?
Answer: > 100 µM (inactive)

Question: What about the GI50 (SW-620) of the same compound?
Answer: > 100 µM (inactive)

Question: What about the GI50 (T47D) of the same compound?
Answer: > 100 µM (inactive)

Question: And the GI50 (TK-10)?
Answer: 54.3 µM (inactive)

Question: And the GI50 (U-251)?
Answer: > 100 µM (inactive)

Question: What about the GI50 (UACC-257) of the same compound?
Answer: > 100 µM (inactive)

Question: And the GI50 (UACC-62)?
Answer: > 100 µM (inactive)

Question: And the GI50 (UO-31)?
Answer: > 100 µM (inactive)

Question: `CN(C)CCCn1cnc2cc(Cl)c(Cl)cc21` was tested. Which GI50 (786-0) did it give?
Answer: 59.6 µM (inactive)

Question: And the GI50 (A498)?
Answer: > 100 µM (inactive)

Question: What about the GI50 (A549) of the same compound?
Answer: > 100 µM (inactive)

Question: And the GI50 (ACHN)?
Answer: > 100 µM (inactive)

Question: What about the GI50 (BT-549) of the same compound?
Answer: 66.7 µM (inactive)

Question: And the GI50 (CAKI-1)?
Answer: 64.3 µM (inactive)

Question: And the GI50 (CCRF-CEM)?
Answer: 55.7 µM (inactive)

Question: And the GI50 (COLO 205)?
Answer: 79.3 µM (inactive)

Question: What about the GI50 (DU-145) of the same compound?
Answer: > 100 µM (inactive)

Question: And the GI50 (EKVX)?
Answer: > 100 µM (inactive)

Question: What about the GI50 (HCC 2998) of the same compound?
Answer: 22 µM (inactive)

Question: And the GI50 (HCT-116)?
Answer: 48 µM (inactive)

Question: What about the GI50 (HCT-15) of the same compound?
Answer: > 100 µM

Question: And the GI50 (HL-60)?
Answer: > 100 µM (inactive)

Question: What about the GI50 (HOP-62) of the same compound?
Answer: > 100 µM (inactive)

Question: And the GI50 (HT-29)?
Answer: 72.3 µM (inactive)

Question: And the GI50 (Hs-578T)?
Answer: > 100 µM (inactive)

Question: And the GI50 (IGROV-1)?
Answer: 56.4 µM (inactive)

Question: And the GI50 (K562)?
Answer: 67.3 µM (inactive)

Question: What about the GI50 (KM12) of the same compound?
Answer: > 100 µM (inactive)

Question: What about the GI50 (LOX IMVI) of the same compound?
Answer: 59.2 µM (inactive)

Question: And the GI50 (M14)?
Answer: 16.6 µM (inactive)

Question: What about the GI50 (MCF7) of the same compound?
Answer: > 100 µM (inactive)

Question: What about the GI50 (MDA-MB-231) of the same compound?
Answer: > 100 µM (inactive)

Question: What about the GI50 (MDA-MB-435) of the same compound?
Answer: 55.8 µM (inactive)

Question: What about the GI50 (MDA-N) of the same compound?
Answer: 34.1 µM (inactive)

Question: And the GI50 (Malme-3M)?
Answer: > 100 µM (inactive)

Question: And the GI50 (NCI-H226)?
Answer: > 100 µM (inactive)

Question: And the GI50 (NCI-H23)?
Answer: > 100 µM (inactive)

Question: And the GI50 (NCI-H460)?
Answer: 91.8 µM (inactive)

Question: And the GI50 (NCI-H522)?
Answer: > 100 µM (inactive)

Question: And the GI50 (NCI/ADR-RES)?
Answer: > 100 µM (inactive)

Question: What about the GI50 (OVCAR-3) of the same compound?
Answer: > 100 µM (inactive)

Question: And the GI50 (OVCAR-4)?
Answer: > 100 µM (inactive)

Question: What about the GI50 (OVCAR-5) of the same compound?
Answer: > 100 µM (inactive)

Question: What about the GI50 (OVCAR-8) of the same compound?
Answer: > 100 µM (inactive)

Question: What about the GI50 (PC-3) of the same compound?
Answer: > 100 µM (inactive)

Question: What about the GI50 (RPMI-8226) of the same compound?
Answer: 38.4 µM (inactive)

Question: And the GI50 (RXF 393)?
Answer: 61.2 µM (inactive)

Question: What about the GI50 (SF-268) of the same compound?
Answer: > 100 µM (inactive)

Question: What about the GI50 (SF-295) of the same compound?
Answer: > 100 µM (inactive)

Question: What about the GI50 (SK-MEL-28) of the same compound?
Answer: 17.9 µM (inactive)

Question: What about the GI50 (SK-MEL-2) of the same compound?
Answer: > 100 µM (inactive)

Question: And the GI50 (SK-MEL-5)?
Answer: 53.1 µM (inactive)

Question: What about the GI50 (SK-OV-3) of the same compound?
Answer: > 100 µM (inactive)

Question: What about the GI50 (SN12C) of the same compound?
Answer: 43.8 µM (inactive)

Question: And the GI50 (SNB-19)?
Answer: > 100 µM (inactive)

Question: What about the GI50 (SNB-75) of the same compound?
Answer: 33.1 µM (inactive)

Question: And the GI50 (SR)?
Answer: 93.5 µM (inactive)

Question: What about the GI50 (SW-620) of the same compound?
Answer: > 100 µM (inactive)

Question: And the GI50 (T47D)?
Answer: 59.7 µM (inactive)

Question: What about the GI50 (TK-10) of the same compound?
Answer: 42.7 µM (inactive)

Question: And the GI50 (U-251)?
Answer: > 100 µM (inactive)

Question: And the GI50 (UACC-257)?
Answer: 19.8 µM (inactive)

Question: And the GI50 (UACC-62)?
Answer: 27.7 µM (inactive)

Question: What about the GI50 (UO-31) of the same compound?
Answer: 70 µM (inactive)
